Measurements from patent US20260327221A1, “INHIBITORS OF CYCLIC GMP-AMP SYNTHASE AND USES THEREOF” (Ventus Therapeutics U.S., Inc., priority 2023, published 2026).

Biological target: hcGAS (Homo sapiens, UniProt Q8N884)
Experiment: hcGAS LCMS assay (direct measurement of cGAMP production by LC/MS)
Type: biochemical
Details: 4 h incubation with enzyme and substrates; cGAMP production by LC/MS; class symbols; read-out: hcGAS LCMS IC50
Description: cGAS catalyzes the cyclization of ATP and GTP to produce cGAMP, which is the activating ligand of STING. Human cGAS (hcGAS) inhibition can thus be quantified by measuring how much cGAMP is formed either indirectly, by monitoring ATP-depletion as in the hcGAS Kinase-Glo assay (as described below), or directly, such as using the hcGAS LCMS assay (as described below).
2. hGAS LCMS Assay Conditions
Compounds were tested for their hcGAS inhibition activity using direct measurement of cGAMP production by LC/MS. Briefly, compounds were incubated with enzyme and substrates for 4 hours (see Table C), before the reaction was stopped with 3 volumes of 70/30 Acetonitrile/H2O mix containing 0.15 uM cGAMP-^13C10^15N5 as internal standard and mixed for 5 mmn. After centrifugation (3700 rpm, […], […]), 100 uL of each reaction was collected and mixed to equal volume of acetonitrile (MeCN). Samples were then analyzed on Qexactive (Column: XBridge BEH Amide Column, 130 Å, 3.5 μm, 3 mm×50 mm. Mobile phase A: 10 mM Ammonium acetate in 95/5 H2O/MeCN (0.5% DMSO), Mobile phase B: MeCN (0.5% DMSO).
The results of the assay, expressed as IC50 values, are reported in Table D with the following designations: A represents an IC50 value <0.005 μM (with A1 representing an IC50 value <0.0005 μM, A2 representing an IC50 value ≥0.0005 μM and <0.001 μM, and A3 representing an IC50 value ≥0.001 μM and <0.005 μM); B represents an IC50 value ≥0.005 μM and <0.02 μM; C represents an IC50 value ≥0.02 μM and <0.06 μM; and D represents an IC50 value ≥0.06 μM.

Chain of hcGAS (Q8N884 whole entry): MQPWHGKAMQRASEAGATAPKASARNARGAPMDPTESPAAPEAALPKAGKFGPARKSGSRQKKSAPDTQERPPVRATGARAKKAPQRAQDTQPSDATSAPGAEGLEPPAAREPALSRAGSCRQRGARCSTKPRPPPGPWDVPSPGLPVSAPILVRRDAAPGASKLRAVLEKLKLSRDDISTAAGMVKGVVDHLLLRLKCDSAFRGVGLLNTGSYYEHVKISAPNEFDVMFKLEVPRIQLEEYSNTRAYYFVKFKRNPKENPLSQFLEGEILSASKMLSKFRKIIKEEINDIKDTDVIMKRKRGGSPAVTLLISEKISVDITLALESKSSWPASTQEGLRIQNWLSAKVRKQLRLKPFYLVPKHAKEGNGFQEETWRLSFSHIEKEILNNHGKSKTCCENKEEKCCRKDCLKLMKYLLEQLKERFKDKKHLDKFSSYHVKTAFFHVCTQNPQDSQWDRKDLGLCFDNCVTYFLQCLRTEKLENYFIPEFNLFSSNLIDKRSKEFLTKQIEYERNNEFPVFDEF

| IC50 [nM] | Structure (SMILES) |
| --- | --- |
| 1 to 5 | COCCCOc1c(-c2ncccc2OC)cc(C(=O)Nc2nnc(-n3nccc3N)s2)oc1=O [Compound 21, N-(5-(5-amino-1H-pyrazol-1-yl)-1,3,4-thiadiazol-2-yl)-3-(3-methoxypropoxy)-4-(3-methoxypyridin-2-yl)-2-oxo-2H-pyran-6-carboxamide] |
| 1 to 5 | COc1cccc(OC)c1-c1cc(C(=O)Nc2nnc(-n3nccc3N)s2)oc(=O)c1OCCN1CCOCC1 [Compound 22, N-(5-(5-amino-1H-pyrazol-1-yl)-1,3,4-thiadiazol-2-yl)-4-(2,6-dimethoxyphenyl)-3-(2-morpholinoethoxy)-2-oxo-2H-pyran-6-carboxamide] |
| 0.5 to 1 | COCCOc1c(-c2c(C#N)cccc2OC)cc(C(=O)Nc2nnc(-n3nccc3C(F)F)s2)oc1=O [Compound 23, 4-(2-cyano-6-methoxyphenyl)-N-(5-(5-(difluoromethyl)-1H-pyrazol-1-yl)-1,3,4-thiadiazol-2-yl)-3-(2-methoxyethoxy)-2-oxo-2H-pyran-6-carboxamide] |
| < 0.5 | COc1cccc(C#N)c1-c1cc(C(=O)Nc2nnc(-n3nccc3Cl)s2)oc(=O)c1OCCO [Compound 26, N-(5-(5-chloro-1H-pyrazol-1-yl)-1,3,4-thiadiazol-2-yl)-4-(2-cyano-6-methoxyphenyl)-3-(2-hydroxyethoxy)-2-oxo-2H-pyran-6-carboxamide] |
| 1 to 5 | COCCOc1cccc(OC)c1-c1cc(C(=O)Nc2nnc(-n3nccc3N)s2)oc(=O)c1OCCOC [Compound 27, N-(5-(5-amino-1H-pyrazol-1-yl)-1,3,4-thiadiazol-2-yl)-4-(2-methoxy-6-(2-methoxyethoxy)phenyl)-3-(2-methoxyethoxy)-2-oxo-2H-pyran-6-carboxamide] |
| 1 to 5 | COCCOc1c(-c2c(OC)cncc2OC)cc(C(=O)Nc2nnc(-n3nccc3N)s2)oc1=O [Compound 28, N-(5-(5-amino-1H-pyrazol-1-yl)-1,3,4-thiadiazol-2-yl)-4-(3,5-dimethoxypyridin-4-yl)-3-(2-methoxyethoxy)-2-oxo-2H-pyran-6-carboxamide] |
| 1 to 5 | COCC(C)(C)COc1c(-c2ncccc2OC)cc(C(=O)Nc2nnc(-n3nccc3N)s2)oc1=O [Compound 29, N-(5-(5-amino-1H-pyrazol-1-yl)-1,3,4-thiadiazol-2-yl)-3-(3-methoxy-2,2-dimethylpropoxy)-4-(3-methoxypyridin-2-yl)-2-oxo-2H-pyran-6-carboxamide] |
| 0.5 to 1 | COCCOCCOc1c(-c2c(OC)cccc2OC)cc(C(=O)Nc2nnc(-n3nccc3N)s2)oc1=O [Compound 30, N-(5-(5-amino-1H-pyrazol-1-yl)-1,3,4-thiadiazol-2-yl)-4-(2,6-dimethoxyphenyl)-3-(2-(2-methoxyethoxy)ethoxy)-2-oxo-2H-pyran-6-carboxamide] |
| 5 to 20 | COc1c(-c2nn(C)cc2C#N)cc(C(=O)Nc2nnc(-n3nccc3C)s2)oc1=O [Compound 31, 4-(4-cyano-1-methyl-1H-pyrazol-3-yl)-3-methoxy-N-(5-(5-methyl-1H-pyrazol-1-yl)-1,3,4-thiadiazol-2-yl)-2-oxo-2H-pyran-6-carboxamide] |
| 1 to 5 | COCCOc1c(-c2c(CC#N)cccc2OC)cc(C(=O)Nc2nnc(-n3nccc3N)s2)oc1=O [Compound 32, N-(5-(5-amino-1H-pyrazol-1-yl)-1,3,4-thiadiazol-2-yl)-4-(2-(cyanomethyl)-6-methoxyphenyl)-3-(2-methoxyethoxy)-2-oxo-2H-pyran-6-carboxamide] |
| 1 to 5 | COc1cccnc1-c1cc(C(=O)Nc2nnc(-n3nccc3N)s2)oc(=O)c1OCC(C)(C)CO [Compound 33, N-(5-(5-amino-1H-pyrazol-1-yl)-1,3,4-thiadiazol-2-yl)-3-(3-hydroxy-2,2-dimethylpropoxy)-4-(3-methoxypyridin-2-yl)-2-oxo-2H-pyran-6-carboxamide] |
| 0.5 to 1 | COc1cccc(OC)c1-c1cc(C(=O)Nc2nnc(-n3nccc3N)s2)oc(=O)c1OCC(C)(C)CO [Compound 36, N-(5-(5-amino-1H-pyrazol-1-yl)-1,3,4-thiadiazol-2-yl)-4-(2,6-dimethoxyphenyl)-3-(3-hydroxy-2,2-dimethylpropoxy)-2-oxo-2H-pyran-6-carboxamide] |
| 1 to 5 | COCCOc1c(-c2c(C#N)cccc2COC)cc(C(=O)Nc2nnc(-n3nccc3N)s2)oc1=O [Compound 39, N-(5-(5-amino-1H-pyrazol-1-yl)-1,3,4-thiadiazol-2-yl)-4-(2-cyano-6-(methoxymethyl)phenyl)-3-(2-methoxyethoxy)-2-oxo-2H-pyran-6-carboxamide] |
| 0.5 to 1 | COc1cccc(OC)c1-c1cc(C(=O)Nc2nnc(-n3nccc3N)s2)oc(=O)c1OCCCO [Compound 40, N-(5-(5-amino-1H-pyrazol-1-yl)-1,3,4-thiadiazol-2-yl)-4-(2,6-dimethoxyphenyl)-3-(3-hydroxypropoxy)-2-oxo-2H-pyran-6-carboxamide] |

Second part, the compound before the results:

| Structure (SMILES) | IC50 [nM] |
| --- | --- |
| COCCOc1c(-c2ncccc2C#N)cc(C(=O)Nc2nnc(-n3nccc3C)s2)oc1=O [Compound 7, 4-(3-cyanopyridin-2-yl)-3-(2-methoxyethoxy)-N-(5-(5-methyl-1H-pyrazol-1-yl)-1,3,4-thiadiazol-2-yl)-2-oxo-2H-pyran-6-carboxamide] | 1 to 5 |
| COCCOc1c(-c2c(C#N)cccc2OC)cc(C(=O)Nc2nnc(-n3nccc3N)s2)oc1=O [Compound 8, N-(5-(5-amino-1H-pyrazol-1-yl)-1,3,4-thiadiazol-2-yl)-4-(2-cyano-6-methoxyphenyl)-3-(2-methoxyethoxy)-2-oxo-2H-pyran-6-carboxamide] | 0.5 to 1 |
| COCCOc1c(-c2ncccc2C#N)cc(C(=O)Nc2nnc(-n3nccc3N)s2)oc1=O [Compound 9, N-(5-(5-amino-1H-pyrazol-1-yl)-1,3,4-thiadiazol-2-yl)-4-(3-cyanopyridin-2-yl)-3-(2-methoxyethoxy)-2-oxo-2H-pyran-6-carboxamide] | 0.5 to 1 |
| COCCOc1c(-c2ncccc2OC)cc(C(=O)Nc2nnc(-n3nccc3N)s2)oc1=O [Compound 10, N-(5-(5-amino-1H-pyrazol-1-yl)-1,3,4-thiadiazol-2-yl)-3-(2-methoxyethoxy)-4-(3-methoxypyridin-2-yl)-2-oxo-2H-pyran-6-carboxamide] | 1 to 5 |
| COCCOc1c(-c2c(C)cccc2OC)cc(C(=O)Nc2nnc(-n3nccc3N)s2)oc1=O [Compound 11, N-(5-(5-amino-1H-pyrazol-1-yl)-1,3,4-thiadiazol-2-yl)-4-(2-methoxy-6-methylphenyl)-3-(2-methoxyethoxy)-2-oxo-2H-pyran-6-carboxamide] | 0.5 to 1 |
| COCCOc1c(-c2c(C#N)cccc2C#N)cc(C(=O)Nc2nnc(-n3nccc3N)s2)oc1=O [Compound 12, N-(5-(5-amino-1H-pyrazol-1-yl)-1,3,4-thiadiazol-2-yl)-4-(2,6-dicyanophenyl)-3-(2-methoxyethoxy)-2-oxo-2H-pyran-6-carboxamide] | 0.5 to 1 |
| COCCOc1c(-c2c(F)cccc2OC)cc(C(=O)Nc2nnc(-n3nccc3N)s2)oc1=O [Compound 13, N-(5-(5-amino-1H-pyrazol-1-yl)-1,3,4-thiadiazol-2-yl)-4-(2-fluoro-6-methoxyphenyl)-3-(2-methoxyethoxy)-2-oxo-2H-pyran-6-carboxamide] | 0.5 to 1 |
| COc1c(-c2c(C#N)cnn2C)cc(C(=O)Nc2nnc(-n3nccc3C)s2)oc1=O [Compound 14, 4-(4-cyano-1-methyl-1H-pyrazol-5-yl)-3-methoxy-N-(5-(5-methyl-1H-pyrazol-1-yl)-1,3,4-thiadiazol-2-yl)-2-oxo-2H-pyran-6-carboxamide] | 20 to 60 |
| COc1cccc(OC)c1-c1cc(C(=O)Nc2nnc(-n3nccc3N)s2)oc(=O)c1OCCO [Compound 17, N-(5-(5-amino-1H-pyrazol-1-yl)-1,3,4-thiadiazol-2-yl)-4-(2,6-dimethoxyphenyl)-3-(2-hydroxyethoxy)-2-oxo-2H-pyran-6-carboxamide] | < 0.5 |
| COCCOc1c(-c2ncccc2OC)cc(C(=O)Nc2nnc(-c3c(F)ccn3C)s2)oc1=O [Compound 18, N-(5-(3-fluoro-1-methyl-1H-pyrrol-2-yl)-1,3,4-thiadiazol-2-yl)-3-(2-methoxyethoxy)-4-(3-methoxypyridin-2-yl)-2-oxo-2H-pyran-6-carboxamide] | 1 to 5 |
| COCCOc1c(-c2c(OC)ccnc2OC)cc(C(=O)Nc2nnc(-n3nccc3N)s2)oc1=O [Compound 19, N-(5-(5-amino-1H-pyrazol-1-yl)-1,3,4-thiadiazol-2-yl)-4-(2,4-dimethoxypyridin-3-yl)-3-(2-methoxyethoxy)-2-oxo-2H-pyran-6-carboxamide] | 1 to 5 |
| COCC(COC)Oc1c(-c2c(OC)cccc2OC)cc(C(=O)Nc2nnc(-n3nccc3N)s2)oc1=O [Compound 20, N-(5-(5-amino-1H-pyrazol-1-yl)-1,3,4-thiadiazol-2-yl)-4-(2,6-dimethoxyphenyl)-3-((1,3-dimethoxypropan-2-yl)oxy)-2-oxo-2H-pyran-6-carboxamide] | 1 to 5 |
